PubChem BioAssay (NCI)
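Where inhibition never reached the appropriate level, the endpoint shown equals the highest concentration tested. Otherwise, values were interpolated linearly from a five-concentration, 48-hour dose response in 96-well plates. TGI: total growth inhibition.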

How the values were obtained:
Test in all cases: NCI tumour cell line growth inhibition, 48 h
[1] = tested on: LXFL 529 NSCLC
[2] = tested on: DMS 114 small cell lung
[3] = tested on: COLO 205 colon
[4] = tested on: IGROV1 ovarian
[5] = tested on: OVCAR-5 ovarian
[6] = tested on: SK-MEL-5 melanoma
[7] = tested on: EKVX NSCLC
[8] = tested on: NCI-H460 lung
[9] = tested on: M14 melanoma
[10] = tested on: MDA-MB-231 breast
[11] = tested on: CCRF-CEM leukemia

Compound	TGI [1] [µM]	TGI [2] [µM]	TGI [3] [µM]	TGI [4] [µM]	TGI [5] [µM]	TGI [6] [µM]	TGI [7] [µM]	TGI [8] [µM]	TGI [9] [µM]	TGI [10] [µM]	TGI [11] [µM]
COc1cccc(NC(=O)CC(=O)NNCC(=O)Nc2nnc(-c3ccc(N(CCC#N)S(=O)(=O)c4ccccc4)cc3)s2)c1	> 100	> 100	> 100	> 100	> 100	> 100	> 100				
COC1=CC(=O)c2c(O)c3c(c(O)c2C1=O)C[C@](C)(O)C[C@@H]3O	14.9	3.7	4.96	17.2	27.8	2.64	23.6	6.84	8.59	28.3	33.9
CN1Cc2c(nc(-c3ccc(Br)cc3)c[n+]2[O-])N(C)C1	> 100	> 100	> 100	> 100	> 100	> 100	> 100	> 100	> 100		> 100
CCn1c2ccc(O)c(C(=O)OC)c2c2cc3ccccc3c(O)c21			29.5	31.2	73.3	38.5	67.4	54.9	47.5	> 100	70
CCN1CCCC(Nc2cc(C)nc(/N=C(/N)Nc3ccc(Cl)c(Cl)c3)n2)C1 (configuration not stated)			2.95	3.06	8.11	5.35	11.4	2.93	0.684	3.84	2.4
O=c1[nH]c2cc3cccnc3c(Cl)c2nc1CBr			26.8	12.3	35.9	35.6	52.1	39.7	27.8	34.4	31.1
O=C1NC2CCCCC2N=C1/C(C(=O)c1ccccc1)=C(\O)c1ccccc1 (configuration not stated)			> 100	> 100	> 100	> 100	> 100	> 100	> 100	83	84.7
CNC(=S)N/N=C(\C)c1nc2ncccc2[nH]1			> 100	> 100	> 100	> 100	> 100	> 100	> 100	> 100	> 100
COc1ccc(/C(=N/Nc2nc3ccccc3[nH]2)C(=O)O)cc1			> 100	> 100	> 100	> 100	> 100	> 100	> 100	> 100	> 100
O=c1[nH]cnc2sc(=S)c3c(c12)CCC3			62.7	> 100	> 100	42.1	> 100	> 100	> 100	> 100	49
O=C1CCC2(O)C3Cc4ccc(Oc5nnnn5-c5ccccc5)c5c4C2(CCN3CC2CC2)C1O5 (configuration not stated)			32.9	> 100	> 100	25.9	> 100	> 100	33.5	> 100	47.4
C/C=C/[C@H]1O[C@@](O)([C@@H](C)[C@H](O)[C@H](C)[C@H]2OC(=O)/C(OC)=C/C(C)=C/[C@@H](C)[C@@H](O)[C@@H](CC)[C@@H](O)[C@H](C)C/C(C)=C/C=C/[C@@H]2OC)C[C@H](OC2CC(O)C(OC(N)=O)C(C)O2)[C@@H]1C (some centres not stated)			4.91	20.9	25.7	0.231	20.5	14.4	0.0387	22.7	0.723
Clc1nc(Nc2nc3ccccc3[nH]2)nc(Cl)c1Cc1ccccc1			> 100	> 100	> 100	> 100	> 100	> 100	> 100	> 100	> 100
c1csc(-c2csc(-c3ccsc3)c2)c1			> 100	> 100	> 100	> 100	> 100	> 100	> 100	> 100	> 100
COc1cc(OC)c2c(O)c(S(=O)(=O)c3ccc(C)cc3)c(=O)oc2c1			> 100	> 100	> 100	> 100	> 100	> 100	> 100	> 100	> 100
Cc1ccc(SC[C@@]2(C(F)F)NC(=O)NC2=O)cc1			> 100	> 100	> 100	> 100	> 100	> 100	> 100	> 100	> 100
C=CCC1(CC)C(=O)NC(=O)NC1=O	> 100		> 100	> 100			> 100	> 100	> 100		> 100
